Assay results reported in the SangsterLogP compilation.

logP	Compound
1.17	N#Cc1cc(-c2ccncc2)cnc1NCCO
2.28	COC(CNc1ncc(-c2ccncc2)cc1C#N)OC
3.45	N#Cc1cc(-c2ccncc2)cnc1NCc1ccccc1
1.74	N#Cc1cc(-c2ccncc2)cnc1Cl
0.79	CC(O)CNc1ncc(-c2ccncc2)cc1C#N (stereo not given)
2.07	C=CCNc1ncc(-c2ccncc2)cc1C#N
2.95	N#Cc1cc(-c2ccncc2)cnc1N1CCCC1
2.33	CCNc1ncc(-c2ccncc2)cc1C#N
1.14	N#Cc1cc(-c2ccncc2)cnc1N(CCO)CCO
1.62	N#Cc1cc(-c2ccncc2)cnc1NCCOCCO
1.04	CCC(CO)Nc1ncc(-c2ccncc2)cc1C#N (stereo not given)
1.93	N#Cc1cc(-c2ccncc2)cnc1NCCCCO
2.03	COCCCNc1ncc(-c2ccncc2)cc1C#N
1.42	N#Cc1cc(-c2ccncc2)cnc1NCCCO
2.13	CN(C)c1ncc(-c2ccncc2)cc1C#N
